pIC50: −log10 of the molar value. Starred links: 1 amine or outer side, 2 acyl side, 3 side chain; linkers in the order of their positions; H or OH if unused. Positions of bridges follow the written chain, without caps; N, C: chain ends. Non-standard residues stand in square brackets, D forms with d. Residues, ends and D or L forms follow the SMILES beside them. Maleimide(3,4-diyl) = O=C1NC(=O)C([*:2])=C1[*:1]; Nle = CCCC[C@H](N)C(=O)O
Experiments:
[1] = Trypsin proteolysis followed by LC-MS; format: in vitro ADME; conditions: trypsin from bovine pancreas (isolated protease), pH 7.5, 1:10000 enzyme/substrate ratio, 50 mM phosphate buffer, 200 mM NaCl, pH 7.50, peptide 200 μM stock, 5% DMSO, LC-MS of intact peptide at 0, 5, 12, 21, 45, 90 min, read-out: t1/2, trypsin proteolysis
Description: Proteolysis studies on BID peptides
Trypsin, modified sequencing grade from bovine pancreas (lyophilized powder, MW = 24 kDa, ≥ 4 units/mg protein) was purchased from Sigma-Aldrich and used without further purification. BID peptides (200 µM stock in PBS buffer pH 7.50, 5% DMSO) were treated with Trypsin (0.02 µM stock solutions in PBS buffer pH 7.50) in a 1:10000 enzyme/substrate ratio.
The degradation was followed with LCMS (Aeris Peptide LC-Column XB-C18 2.6 µm, 100x2.1 mm, injection volume: 5 µL, acetonitrile/water (0.1% formic acid) 5-95% gradient).
The degradation pattern of each peptide (figure A) could be identified by mass spectrometry.
The cleavage sites are marked by dotted lines and the subsequent fragment masses, shown in squares, are allocated to a number which is reported on the LCMS graph (graph B).
The LCMS traces (graph B) of each peptide incubated with Trypsin were recorded at the following successive times: 0, 5, 12, 21, 45 and 90 min.
(graph C) was integrated to extract kinetic values.

[2] = target: FITC-BID/Mcl-1 interaction (Homo sapiens, UniProt Q07820); experiment: Fluorescence anisotropy competition assay, FITC-BID/Mcl-1; format: binding; conditions: 25 nM tracer, 150 nM protein, 50 mM Tris, 150 mM NaCl, 0.61% Triton X-100, pH 7.40; 1 h, room temperature; triplicate; read-out: IC50, inhibition of the FITC-BID/Mcl-1 interaction
Description: fluorescein-labelled FITC-Ahx-BID (80-102) was synthesised and purified as stated […]
(§1) Fluorescence anisotropy assays were performed in 384-well black plates (Greiner Bio-one).
(§2) Each experiment was run in triplicate and fluorescence anisotropy was measured using a Perkin Elmer EnVisionTM 2103 MultiLabel plate reader. […]
- 50 mM phosphate buffer at pH 7.5, containing 200 mM NaCl and 0.05% of tween for […]
(§3) 20 µL of assay buffer were first added to each well.
(§4) For each competition assay, 20 µL of a solution of α-helix mimetics (1 mM in 90:10 (v/v) assay buffer: DMSO) were added to the first column. The solution was well mixed and 20 µL were taken out and added to the next column and so on. This operation consisted on serial dilution of the peptides across the plate (24-points, 1/2 serial dilution). The tracer peptide and the targeted protein were added to each well to give a final concentration of 25 nM and […]
(§5) For control wells in both assays, the tracer peptide was replaced with an identical volume of assay buffer. […] Plates were read after 1 h of incubation […]
(§6) The average anisotropy (across three experimental replicates) and the standard deviation of these values were then calculated and fit to a sigmoidal logistic model (Equation 3) using OriginPro 9.0 which provided the IC50 and error values.

[3] = target: BODIPY-BAK/Bcl-xL interaction (Homo sapiens, UniProt Q07817); experiment: Fluorescence anisotropy competition assay, BODIPY-BAK/Bcl-xL; format: binding; conditions: 25 nM tracer, 150 nM protein, 50 mM phosphate, 200 mM NaCl, 0.02 mg mL-1 BSA, pH 7.50; 1 h, room temperature; triplicate; read-out: IC50, inhibition of the BODIPY-BAK/Bcl-xL interaction
Description: as §1, §2
- 50 mM phosphate buffer at pH 7.5, containing 200 mM NaCl and 0.02 mg.mL-1 bovine serum albumin (BSA) for BODIPY-BAK/Bcl-xL. […]
as §3, §4
For each direct titration assay, 20 µL of a solution of the protein (60 µM in assay buffer) were added to the first column. […]
as §5, §6

[4] = Circular dichroism, % helicity; format: physicochemical; conditions: CD, peptide 10-20 μM, calculated from MRE at 222 nm
Description: Samples were prepared in two different solvent systems (30% TFE:H2O, 30% CH3CN:water) to concentrations between 10 - 20 μM (Figure S 23). Considering the high number of hydrophobic residues in BID and S peptides, organic co-solvents were used to ensure good solubility and avoid aggregation at concentrations high enough for CD analyses. DMSO stocks of peptides were not used for CD due to its high absorbance below 230 nm.
The raw circular dichroism data obtained for the peptides was processed by the subtraction of the solvent signal and converted into a mean residue ellipticity:
Where = molar ellipticity[θ]MRE per residue, θ = circular dichroism at a given wavelength, c = molar concentration, l = path length in cm, R = number of residues in the peptide sequence.
Calculation of % helicity was performed by the following equation:[4]
Where: θH = Theoretical MRE for 100% helicity at 222 nm, θ0 = Theoretical MRE for 100% helicity at 222 nm at 0 °C = –44000, (∂θ/∂T) = temperature dependence of infinite helix = +250, T = temperature in °C, x = 3, Nr = number of residues in the peptide.
In both solvent systems, it is noteworthy that STA-peptides are more helical than RED-peptides or WT-peptides; with the exception of constrained S-Cys-peptides. The use of TFE as co-solvent in water enhances the α-helicity of both series of peptides compared to the use of acetonitrile in water. […]
thus bioactive) conformation. The S peptides show a low helix propensity which is consistent […]
Figure S 23: CD spectra A. and B. in 30% TFE:H 2O; C. and D. in 30% CH3CN:H 2O.
Table 1: Percentage of helicity in the three solvent systems […]
(also on this page, place not known: Molar residue ellipticity (deg.cm 2 .dmol -1 ) Molar residue ellipticity (deg.cm 2 .dmol -1 ) Molar residue ellipticity (deg.cm 2 .dmol -1 ) Molar residue ellipticity (deg.cm 2 .dmol -1 ) TFE:H2O; CH3CN:H2O.)

BODIPY-BAK/Bcl-xL interaction, sequence (Q07817 whole entry): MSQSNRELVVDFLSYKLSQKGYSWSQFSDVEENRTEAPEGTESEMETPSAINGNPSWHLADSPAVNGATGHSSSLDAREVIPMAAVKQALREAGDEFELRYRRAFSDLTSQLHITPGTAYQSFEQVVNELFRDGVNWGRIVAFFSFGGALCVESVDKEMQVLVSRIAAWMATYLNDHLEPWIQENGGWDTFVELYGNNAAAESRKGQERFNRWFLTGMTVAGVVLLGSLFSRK
FITC-BID/Mcl-1 interaction, sequence (Q07820 172-327 limits assumed): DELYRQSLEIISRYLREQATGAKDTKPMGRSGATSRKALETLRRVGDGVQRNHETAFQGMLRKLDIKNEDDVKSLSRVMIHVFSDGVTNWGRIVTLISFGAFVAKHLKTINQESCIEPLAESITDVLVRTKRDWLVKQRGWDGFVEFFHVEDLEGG

| half-life [1] | pIC50 [2] | pIC50 [3] | Percentage of helicity, 30% TFE:H2O [4] | Percentage of helicity, 30% CH3CN:H2O ([4]; 30% CH3CN:H2O) | SMILES |
| --- | --- | --- | --- | --- | --- |
| 22 min | 4.63 | 4.15 |  |  | CCCC[C@H](NC(=O)[C@H](CS)NC(=O)[C@H](CC(=O)O)NC(=O)CNC(=O)[C@@H](NC(=O)[C@H](CS)NC(=O)[C@H](C)NC(=O)[C@H](CC(C)C)NC(=O)[C@H](Cc1c[nH]cn1)NC(=O)[C@H](CCCNC(=N)N)NC(=O)[C@H](C)NC(=O)[C@@H](NC(=O)[C@H](CC(N)=O)NC(=O)[C@H](CCCNC(=N)N)NC(=O)[C@@H](NC(=O)[C@@H](NC(=O)[C@H](CC(=O)O)NC(=O)[C@H](CCC(=O)O)NC(C)=O)[C@@H](C)CC)[C@@H](C)CC)[C@@H](C)CC)C(C)C)C(=O)N[C@@H](CC(=O)O)C(=O)N[C@@H](CCCNC(=N)N)C(=O)N[C@@H](CO)C(=O)N[C@H](C(=O)N[C@@H](Cc1c[nH]c2ccccc12)C(N)=O)[C@@H](C)CC [1a] (Ac-EDIIRNIARHLACVGDC[Nle]DRSIW-NH2) |
| 32 min |  |  | 23% |  | CCCC[C@H](NC(=O)[C@H](CCS)NC(=O)[C@H](CC(=O)O)NC(=O)CNC(=O)[C@@H](NC(=O)[C@H](CCS)NC(=O)[C@H](C)NC(=O)[C@H](CC(C)C)NC(=O)[C@H](Cc1c[nH]cn1)NC(=O)[C@H](CCCNC(=N)N)NC(=O)[C@H](C)NC(=O)[C@@H](NC(=O)[C@H](CC(N)=O)NC(=O)[C@H](CCCNC(=N)N)NC(=O)[C@@H](NC(=O)[C@@H](NC(=O)[C@H](CC(=O)O)NC(=O)[C@H](CCC(=O)O)NC(C)=O)[C@@H](C)CC)[C@@H](C)CC)[C@@H](C)CC)C(C)C)C(=O)N[C@@H](CC(=O)O)C(=O)N[C@@H](CCCNC(=N)N)C(=O)N[C@@H](CO)C(=O)N[C@H](C(=O)N[C@@H](Cc1c[nH]c2ccccc12)C(N)=O)[C@@H](C)CC [1b] |
| 75 min | 4.78 | 4.71 |  |  | CCCC[C@H](NC(=O)[C@@H]1CSC2=C(SC[C@H](NC(=O)[C@H](C)NC(=O)[C@H](CC(C)C)NC(=O)[C@H](Cc3c[nH]cn3)NC(=O)[C@H](CCCNC(=N)N)NC(=O)[C@H](C)NC(=O)[C@@H](NC(=O)[C@H](CC(N)=O)NC(=O)[C@H](CCCNC(=N)N)NC(=O)[C@@H](NC(=O)[C@@H](NC(=O)[C@H](CC(=O)O)NC(=O)[C@H](CCC(=O)O)NC(C)=O)[C@@H](C)CC)[C@@H](C)CC)[C@@H](C)CC)C(=O)N[C@@H](C(C)C)C(=O)NCC(=O)N[C@@H](CC(=O)O)C(=O)N1)C(=O)NC2=O)C(=O)N[C@@H](CC(=O)O)C(=O)N[C@@H](CCCNC(=N)N)C(=O)N[C@@H](CO)C(=O)N[C@H](C(=O)N[C@@H](Cc1c[nH]c2ccccc12)C(N)=O)[C@@H](C)CC [3a] (Ac-EDIIRNIARHLACVGDC[Nle]DRSIW-NH2; linker 13-17 via Maleimide(3,4-diyl)) |
| 84 min |  |  | 47% | 43% | CCCC[C@H](NC(=O)[C@@H]1CCSC2=C(SCC[C@H](NC(=O)[C@H](C)NC(=O)[C@H](CC(C)C)NC(=O)[C@H](Cc3c[nH]cn3)NC(=O)[C@H](CCCNC(=N)N)NC(=O)[C@H](C)NC(=O)[C@@H](NC(=O)[C@H](CC(N)=O)NC(=O)[C@H](CCCNC(=N)N)NC(=O)[C@@H](NC(=O)[C@@H](NC(=O)[C@H](CC(=O)O)NC(=O)[C@H](CCC(=O)O)NC(C)=O)[C@@H](C)CC)[C@@H](C)CC)[C@@H](C)CC)C(=O)N[C@@H](C(C)C)C(=O)NCC(=O)N[C@@H](CC(=O)O)C(=O)N1)C(=O)NC2=O)C(=O)N[C@@H](CC(=O)O)C(=O)N[C@@H](CCCNC(=N)N)C(=O)N[C@@H](CO)C(=O)N[C@H](C(=O)N[C@@H](Cc1c[nH]c2ccccc12)C(N)=O)[C@@H](C)CC [3b] |

Reference: PMC5618791, “Double quick, double click reversible peptide “stapling”” (Chemical Science, 2017)
